One test addresses T1, Class A ESBL SHV-5 (Klebsiella pneumoniae, UniProt P0A3M1).
T1 construct: made in house; host or cells: E. coli BL21(DE3) for purified enzyme; E. coli cells containing SHV-5 for extracts
Format: biochemical, E. coli. The following applies: nitrocefin 100 μM, PBS pH 7.0, read-out: SHV-5 IC50 Range. The protocol: (§1) Isolation of β-lactamases. For all examples, purified beta-lactamase enzymes were used to measure a compounds' ability to inhibit the Class A ESBL CTXM-15, the Class C P99 AmpC and the Class A carbapenemase KPC-2. […] The enzyme preparations are described herein.
For the preparation of SHV-5 extracts, E. coli cells containing SHV-5 were cultured overnight with shaking at a volume of 20 mL. They were further diluted 10-fold and grown to mid-log phase (OD at 600 nm, 0.5-0.8) in Mueller-Hinton II (MH-II) broth at 37° C. The cells were pelleted at 5000 g, washed and resuspended in 2 mL PBS pH 7.0. The β-lactamase was extracted by four cycles of freezing and thawing followed by centrifugation. β-lactamase activity in the extract was measured with the chromogenic cephalosporin nitrocefin. The amount of protein in each β-lactamase preparation was determined by the bicinchoninic acid (BCA) assay.
(§2) For the isolation and purification of SHV-5, p99 AmpC, KPC-2 and CTX-M15 β-lactamases, E. coli BL21(DE3) bacterial cells carrying expression plasmids (expressed as native untagged proteins) for the individual β-lactamases were grown in 1 L of Superbroth (Teknova Inc. Hollister, Calif.) supplemented with 100 μg/ml kanamycin and 1×5052 (0.5% glycerol, 0.05% glucose and 0.2% α-lactose) at 35° C. for 18-20 hours. Cells were harvested by centrifugation (4,000×g, 4° C., 20 min), and resuspended in 50 ml of 10 mM HEPES pH 7.5 ( 1/20 of the initial volume). The cells were lysed by sonication (5 pulses of 45 seconds) at 45 W on ice. The lysates were clarified by centrifugation at 10,000×g for 40 minutes at 4° C. Samples were diluted 5-fold in 50 mM sodium acetate pH 5.0, stored overnight at 4° C., after which they were centrifuged at 10,000×g for 30 minutes to clarify, and filtered through 0.45 μm filters. The samples were loaded onto a 5 ml Capto S sepharose cation exchange column (GE Healthcare) pre-equilibrated with 50 mM sodium acetate pH 5.0. The column was washed with 5 column volumes of 50 mM sodium acetate pH 5.0 to wash out unbound protein and a linear gradient of NaCl (0 to 500 mM) was used to elute the protein (over 16 CV) from the column. Fractions were assayed for β-lactamase activity using Centa (Calbiochem, Gibbstown, N.J.) as a reporter β-lactamase substrate for activity in the isolated fractions. Active fractions were pooled, concentrated and further purified by gel filtration chromatography on a Superdex 75 prep grade gel filtration column (GE Healthcare, Piscataway, N.J.) pre-equilibrated in 50 mM Hepes pH 7.5, 150 mM NaCl. Active fractions were pooled concentrated, quantitated by BCA protein determination (Thermo Scientific, Rockford, Ill.), and frozen at −80° C. in 20% glycerol until use.
(§3) β-lactamase Inhibition. To determine the level of inhibition of β-lactamaseenzymes, compounds were diluted in PBS at pH 7.0 to yield concentrations between 100 and 0.005 μM in microtiter plates. An equal volume of diluted enzyme stock was added, and the plates were incubated at 37° C. for 10 min. Nitrocefin solution was then dispensed as substrate into each well at a final concentration of 100 μM, and the plates were immediately read with the kinetic program at 486 nm for 10 min on the SPECTRAMAX® Plus^384 (high-throughput microplate spectrophotometer; Molecular Devices Corp., Sunnyvale, Calif.). Maximum rates of metabolism were then compared to those in control wells (without inhibitors), and percentages of enzyme inhibition were calculated for each concentration of inhibitor. The concentration of inhibitor needed to reduce the initial rate of hydrolysis of substrate by 50% (IC50) was calculated as the residual activity of β-lactamase at 486 nm using the SoftMax Pro 5.0 software (Molecular Devices Corp.).

Test [1] concerns the target T2, Class A carbapenemase KPC-2 (Klebsiella pneumoniae, UniProt Q9F663).
T2 construct: made in house; host or cells: E. coli BL21(DE3)
Description: β-lactamase enzyme inhibition (nitrocefin hydrolysis), KPC-2. The following applies: purified enzyme; nitrocefin 100 μM, PBS pH 7.0; read-out: KPC-2 IC50 Range. Format: biochemical. The protocol:
as §1, §2, §3

The test system of test [2] is K. pneumoniae expressing the Class A carbapenemase KPC-2. Description: microbe, parasite or virus in culture. To be noted: in the presence of fixed 8 μg/mL Ceftazidime. From the text: To determine the ability of test compounds to potentiate the inhibition of the growth of bacterial strains producing beta-lactamase enzymes, classic cell based screening assays were employed. Four bacteria strains producing beta-lactamase enzymes were used: K. pneumoniae expressing the Class A Extended Spectrum Beta-Lactamase (ESBL) CTX-M-15, E. coli expressing the Class A ESBL SHV-5, E. cloacae expressing the Class C P99+, and K. pneumoniae expressing the Class A carbapenemase KPC-2. In order to evaluate the ability of test compounds to inhibit beta-lactamase activity, Applicants used a modification of the broth microdilution assay. The assay was conducted in Cation Adjusted Mueller Hinton Broth (CAMHB, BD # 212322, BD Diagnostic Systems, Sparks, Md.). Bacteria strains were grown for 3-5 hours in CAMBH broth. All four strains were grown in presence of 50 μg/mL ampicillin to ensure resistance is maintained. In the meantime, test compounds were diluted in DMSO to a 0.1 mg/mL stock. The compounds were added to a microtiter plate and were diluted in 2-fold serial dilutions in CAMHB in a final concentration range of 8 μg/mL to 0.015 μg/ml. An overlay of CAMHB containing a cephalosporin was added to the compounds at a final static concentration of 8 μg/ml. […] Each of these compound plates are made in quadruplicate, one for each bacteria strain. In addition to the titration of test compounds the MICs of a panel of cephalosporins is also tested to ensure the strains are behaving consistently from test to test. Once the test compound and cephalosporin are added the plates can be inoculated. Inocula are conducted according to CLSI broth microdilution method. After inoculation the plates are incubated for 16-20 hours at 37° C. then the Minimal Inhibitory Concentration (MIC) of the test compound is determined visually.

The next test deals with T3, Class A ESBL CTXM-15 (Escherichia coli, UniProt Q9EXV5).
T3 construct: made in house; host or cells: E. coli BL21(DE3)
Description: β-lactamase enzyme inhibition (nitrocefin hydrolysis), CTXM-15. The following applies: purified enzyme; nitrocefin 100 μM, PBS pH 7.0; read-out: CTXM-15 IC50 Range. In kind it is biochemical. As to the method:
as §1, §2, §3

The next test concerns the target T4, Class C P99 AmpC (Enterobacter cloacae, UniProt P05364).
T4 construct: made in house; host or cells: E. coli BL21(DE3)
Format: biochemical. To be noted: purified enzyme; nitrocefin 100 μM, PBS pH 7.0; read-out: P99 AmpC IC50 Range. As to the method:
as §1, §2, §3

[3] abbreviates: purified beta-lactamase enzyme (Examples 1 and 31-64).
The mark [4] stands for this setting: cellular extracts of E. coli containing SHV-5 (Examples 2-30).

Consider ten molecules from patent US20100120715A1, “BETA-LACTAMASE INHIBITORS” (priority 2007, published 2010).

Where two headings read alike, the source gives them in different places. Where only a bound is given, the exact number is not on record here.

T3 sequence (Q9EXV5 entry or part of it): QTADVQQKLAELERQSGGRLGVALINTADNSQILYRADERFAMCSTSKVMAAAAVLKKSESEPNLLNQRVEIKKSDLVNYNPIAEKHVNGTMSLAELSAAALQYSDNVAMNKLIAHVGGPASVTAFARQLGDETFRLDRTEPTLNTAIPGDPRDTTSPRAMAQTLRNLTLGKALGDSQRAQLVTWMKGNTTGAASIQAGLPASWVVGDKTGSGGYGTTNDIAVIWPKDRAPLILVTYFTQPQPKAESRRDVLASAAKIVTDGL
T4 sequence (P05364 21-381): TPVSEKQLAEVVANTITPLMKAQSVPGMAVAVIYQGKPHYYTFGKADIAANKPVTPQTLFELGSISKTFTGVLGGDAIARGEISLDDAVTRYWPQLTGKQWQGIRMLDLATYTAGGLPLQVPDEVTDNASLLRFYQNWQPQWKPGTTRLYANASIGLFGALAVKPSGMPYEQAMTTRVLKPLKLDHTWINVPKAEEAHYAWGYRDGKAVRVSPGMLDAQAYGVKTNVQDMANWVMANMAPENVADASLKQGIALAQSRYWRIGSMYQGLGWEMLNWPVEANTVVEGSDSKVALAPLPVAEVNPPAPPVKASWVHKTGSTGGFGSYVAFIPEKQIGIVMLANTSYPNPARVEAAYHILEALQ
T2 sequence (Q9F663 25-293 limits assumed): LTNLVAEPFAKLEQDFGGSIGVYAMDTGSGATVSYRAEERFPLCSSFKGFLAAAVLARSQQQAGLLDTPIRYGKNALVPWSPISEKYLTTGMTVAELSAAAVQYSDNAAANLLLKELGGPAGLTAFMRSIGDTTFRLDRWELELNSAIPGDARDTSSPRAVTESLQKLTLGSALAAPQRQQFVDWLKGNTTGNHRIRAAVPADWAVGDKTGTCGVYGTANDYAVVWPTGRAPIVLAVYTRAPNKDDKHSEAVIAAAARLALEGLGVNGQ
T1 sequence (P0A3M1 22-286): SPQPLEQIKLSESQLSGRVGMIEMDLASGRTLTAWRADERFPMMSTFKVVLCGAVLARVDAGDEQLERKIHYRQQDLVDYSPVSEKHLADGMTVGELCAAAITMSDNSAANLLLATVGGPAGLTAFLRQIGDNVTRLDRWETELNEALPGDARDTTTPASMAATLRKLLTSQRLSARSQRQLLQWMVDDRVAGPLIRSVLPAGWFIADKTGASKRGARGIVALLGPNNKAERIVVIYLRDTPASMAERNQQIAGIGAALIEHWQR

Turning to `O=C(CN1C(=O)c2ccccc2C1=O)N[C@@H](Cc1cccc(C(=O)O)c1O)B(O)O` [Example 45, (1R)-1-(2-(1,3-dioxoisoindolin-2-yl)acetylamino)-2-(2-hydroxy-3-carboxyphenyl)ethyl-1-boronic acid], the IC50 (on Class A ESBL SHV-5 (setting [3]); in test [1]; on Class A ESBL CTXM-15; on Class C P99 AmpC) was below 10 nM each time. For the same molecule, the “MIC of example compound, K. pneumoniae KPC-2 + 8 μg/mL CAZ” value (shortened to “MIC of example compound”) in test [2] is listed as “C (C represents an MIC of <1 μg/mL)”.

With `COc1ccc(C(=O)N[C@@H](Cc2cccc(C(=O)O)c2O)B(O)O)cc1` [Example 33, (1R)-1-(4-Methoxybenzoyl)-amino-1-(3-carboxy-2-hydroxy)benzyl-methylboronic acid], the IC50 (usually the concentration that inhibits the measured activity by half) at Class A ESBL SHV-5 (setting [3]) is 100 to 1000 nM; in test [1], below 10 nM; at Class A ESBL CTXM-15, below 10 nM; at Class C P99 AmpC, below 10 nM. The “MIC of example compound” value in test [2] is given as “C (C represents an MIC of <1 μg/mL)”.

For the molecule `O=C(N[C@@H](Cc1cccc(C(=O)O)c1O)B(O)O)c1cnccn1` [Example 58, (1R)-1-(Pyrazine-2-carbonyl-amino)-2-(2-hydroxy-3-carboxyphenyl)ethyl-1-boronic acid], the IC50 on Class A ESBL SHV-5 (setting [3]) is 10 to 100 nM; in test [1] it was below 10 nM; at Class A ESBL CTXM-15 it was below 10 nM; on Class C P99 AmpC, 10 to 100 nM. Also, the “MIC of example compound” value in test [2] is listed as “C (C represents an MIC of <1 μg/mL)”.

In the case of `CC(=O)Nc1nc(CC(=O)N[C@@H](Cc2cccc(C(=O)O)c2O)B(O)O)cs1` [Example 63, (1R)-1-((2-Acetylamino-thiazol-4-yl)-acetylamino)-2-(2-hydroxy-3-carboxyphenyl)ethyl-1-boronic acid], the IC50 (at Class A ESBL SHV-5 (setting [3]); in test [1]; on Class A ESBL CTXM-15; on Class C P99 AmpC) was below 10 nM throughout. Further, in test [2], the “MIC of example compound” value is listed as “C (C represents an MIC of <1 μg/mL)”.

For `O=C(N[C@@H](Cc1cccc(C(=O)O)c1O)B(O)O)c1cccc(-n2ccnc2)c1` [Example 57, (1R)-1-(3-Imidazol-1-yl-benzoylaminoamino)-2-(2-hydroxy-3-carboxyphenyl)ethyl-1-boronic acid], the IC50 (on Class A ESBL SHV-5 (setting [3]); in test [1]; at Class A ESBL CTXM-15; at Class C P99 AmpC) was below 10 nM throughout. For the same molecule, in test [2], the “MIC of example compound” value is “C (C represents an MIC of <1 μg/mL)”.

`Cc1ccccc1C(=O)N[C@@H](Cc1cccc(C(=O)O)c1O)B(O)O` [Example 30, (1R)-1-(2-methylbenzoylamino)-2-(2-hydroxy-3-carboxyphenyl)ethyl-1-boronic acid]: the IC50 is 10 to 100 nM at Class A ESBL SHV-5 (setting [4]), below 10 nM in test [1], below 10 nM on Class A ESBL CTXM-15 and below 10 nM on Class C P99 AmpC. The “MIC of example compound” value in test [2] was “C (C represents an MIC of <1 μg/mL)”.

`O=C(N[C@@H](Cc1cccc(C(=O)O)c1O)B(O)O)c1ccncc1` [Example 55, (1R)-1-(Pyridine-4-carbonyl-amino)-2-(2-hydroxy-3-carboxyphenyl)ethyl-1-boronic acid]: the IC50 was 10 to 100 nM on Class A ESBL SHV-5 (setting [3]), below 10 nM in test [1], below 10 nM at Class A ESBL CTXM-15 and below 10 nM at Class C P99 AmpC.

Regarding `O=C(N[C@@H](Cc1cccc(C(=O)O)c1O)B(O)O)c1ccccc1O` [Example 35, (1R)-1-(2-hydroxybenzoylamino)-2-(2-hydroxy-3-carboxyphenyl)ethyl-1-boronic acid], the IC50 at Class A ESBL SHV-5 (setting [3]) is 10 to 100 nM; in test [1], 10 to 100 nM; on Class A ESBL CTXM-15, below 10 nM; on Class C P99 AmpC, below 10 nM. For the same molecule, in test [2], the “MIC of example compound” value is on record as “C (C represents an MIC of <1 μg/mL)”.

For the molecule `O=C(O)c1cccc(C[C@H](NC(=O)c2cccc3ccccc23)B(O)O)c1O` [Example 27, (1R)-1-(1-naphthoylamino)-2-(2-hydroxy-3-carboxyphenyl)ethyl-1-boronic acid], the IC50 on Class A ESBL SHV-5 (setting [4]) was 10 to 100 nM; in test [1] it was below 10 nM; on Class A ESBL CTXM-15 it was below 10 nM; on Class C P99 AmpC, below 10 nM. For the same molecule, the “MIC of example compound” value in test [2] was “C (C represents an MIC of <1 μg/mL)”.

Consider `O=C(N[C@@H](Cc1cccc(C(=O)O)c1O)B(O)O)c1ccc(Cl)cc1` [Example 32, (1R)-1-(4-Chloro-benzoyl)-amino-1-(3-carboxy-2-hydroxy)benzyl-methylboronic acid], for which the IC50 at Class A ESBL SHV-5 (setting [3]) is 10 to 100 nM; in test [1], below 10 nM; at Class A ESBL CTXM-15, below 10 nM; on Class C P99 AmpC, below 10 nM. Besides, the “MIC of example compound” value in test [2] is listed as “C (C represents an MIC of <1 μg/mL)”.
